Test results taken from the CheMixHub ionic liquid set.

Assay: xn = mol fraction of the nth substance listed

CCC[N+](C)(C)C.O=S(=O)([N-]S(=O)(=O)C(F)(F)F)C(F)(F)F + CCC[N+]1(C)CCCCC1.O=S(=O)([N-]S(=O)(=O)C(F)(F)F)C(F)(F)F
101.3 kPa
Conditions	viscosity [mPa·s]
283.15 K, x1 = 0.6	248
283.15 K, x1 = 0.8	201
293.15 K, x1 = 0.6	134
293.15 K, x1 = 0.8	113
308.15 K, x1 = 0.4	71
308.15 K, x1 = 0.6	64
313.15 K, x1 = 0.8	45.9
318.15 K, x1 = 0.4	46.4
318.15 K, x1 = 0.6	42.3
343.15 K, x1 = 0.4	20.2
343.15 K, x1 = 0.8	17.5
348.15 K, x1 = 0.8	15.4
348.15 K, x1 = 1	14.6

CC(=O)[O-].CC[n+]1ccn(C)c1 + CCO
Conditions	electrical conductivity [S/m]	viscosity [mPa·s]
278.15 K, 101 kPa, x2 = 0.201	–	264
278.15 K, 101 kPa, x2 = 0.9	–	3.396
288.15 K, 101 kPa, x2 = 0	–	284
288.15 K, 101 kPa, x2 = 0.1	–	206.6
288.15 K, 101 kPa, x2 = 0.8	–	5.15
293.15 K, 101.3 kPa, x2 = 0	0.243	–
293.15 K, 101.3 kPa, x2 = 0.0733	0.247	–
293.15 K, 101.3 kPa, x2 = 0.1229	0.269	–
293.15 K, 101.3 kPa, x2 = 0.2965	0.433	–
293.15 K, 101.3 kPa, x2 = 0.4286	0.63	–
293.15 K, 101.3 kPa, x2 = 0.5373	0.991	–
293.15 K, 101.3 kPa, x2 = 0.7309	1.447	–
293.15 K, 101.3 kPa, x2 = 0.7625	1.539	–
293.15 K, 101.3 kPa, x2 = 0.7754	1.615	–
293.15 K, 101.3 kPa, x2 = 0.8081	1.329	–
293.15 K, 101.3 kPa, x2 = 0.8897	0.71	–
293.15 K, 101.3 kPa, x2 = 0.9163	0.505	–
293.15 K, 101.3 kPa, x2 = 0.9299	0.404	–
293.15 K, 101.3 kPa, x2 = 0.9383	0.335	–
293.15 K, 101.3 kPa, x2 = 0.9494	0.252	–
298.15 K, 101 kPa, x2 = 0.4002	–	31.8
298.15 K, 101 kPa, x2 = 0.5001	–	20.04
298.15 K, 101 kPa, x2 = 0.8666	–	2.67
308.15 K, 101 kPa, x2 = 0.2999	–	32.06
308.15 K, 101 kPa, x2 = 0.6	–	9.27
308.15 K, 101 kPa, x2 = 0.8	–	3.398
313.15 K, 101 kPa, x2 = 0.1059	–	43.5
313.15 K, 101 kPa, x2 = 0.2471	–	28.5
313.15 K, 101 kPa, x2 = 0.5572	–	9.24
313.15 K, 101 kPa, x2 = 0.7494	–	3.89
318.15 K, 101 kPa, x2 = 0.1	–	39.7
318.15 K, 101 kPa, x2 = 0.201	–	29.99
318.15 K, 101 kPa, x2 = 0.2999	–	22.19
318.15 K, 101 kPa, x2 = 0.4002	–	15.76
318.15 K, 101 kPa, x2 = 0.6	–	7.27
318.15 K, 101 kPa, x2 = 0.9	–	1.591
328.15 K, 101 kPa, x2 = 0	–	30.3
328.15 K, 101 kPa, x2 = 0.7	–	3.833
338.15 K, 101 kPa, x2 = 0	–	21.85
338.15 K, 101 kPa, x2 = 0.8	–	2.049
343.15 K, 101 kPa, x2 = 0.1059	–	14.96
343.15 K, 101 kPa, x2 = 0.3504	–	8.69
343.15 K, 101 kPa, x2 = 0.4165	–	7.31

C[C@H](N)C(=O)[O-].C[N+](C)(C)CCO + CCO
100 kPa
Conditions	viscosity [mPa·s]
287.88 K, x1 = 1	4500
287.97 K, x1 = 0.6071	550
288 K, x1 = 0.2012	17.5
288.02 K, x1 = 0.1013	5.6
288.04 K, x1 = 0.8027	1750
288.05 K, x1 = 0.3782	89
288.05 K, x1 = 0.5527	359
288.05 K, x1 = 0.7056	1079
288.09 K, x1 = 0.2903	42
288.1 K, x1 = 1	5100
288.12 K, x1 = 0.894	2875
289.23 K, x1 = 0.6071	520
289.25 K, x1 = 0.3782	88
289.26 K, x1 = 0.2012	17
289.26 K, x1 = 0.8027	1625
289.28 K, x1 = 0.1013	5.3
289.28 K, x1 = 0.5527	339
289.29 K, x1 = 0.7056	990
289.31 K, x1 = 0.2903	40.6
289.34 K, x1 = 0.894	2592
289.96 K, x1 = 1	3700
290.21 K, x1 = 1	4300
290.48 K, x1 = 0.6071	470
290.5 K, x1 = 0.3782	85
290.51 K, x1 = 0.2012	16.4
290.51 K, x1 = 0.8027	1464
290.52 K, x1 = 0.1013	5.1
290.52 K, x1 = 0.5527	315
290.52 K, x1 = 0.7056	900
290.53 K, x1 = 0.2903	39.2
290.55 K, x1 = 0.894	2319
291.71 K, x1 = 0.6071	430
291.72 K, x1 = 0.2012	15.7
291.72 K, x1 = 0.3782	80
291.73 K, x1 = 0.1013	4.9
291.73 K, x1 = 0.2903	37.6
291.73 K, x1 = 0.5527	291
291.73 K, x1 = 0.7056	820
291.73 K, x1 = 0.8027	1311
291.74 K, x1 = 0.894	2072
292.02 K, x1 = 1	3052
292.32 K, x1 = 1	3520
292.91 K, x1 = 0.1013	4.7
292.91 K, x1 = 0.3782	76
292.91 K, x1 = 0.6071	394
292.92 K, x1 = 0.2012	15
292.92 K, x1 = 0.2903	36
292.92 K, x1 = 0.5527	268
292.92 K, x1 = 0.7056	740
292.92 K, x1 = 0.8027	1180
292.92 K, x1 = 0.894	1858
294.08 K, x1 = 1	2544
294.09 K, x1 = 0.1013	4.5
294.09 K, x1 = 0.2012	14.3
294.09 K, x1 = 0.2903	34.4
294.09 K, x1 = 0.6071	360
294.1 K, x1 = 0.3782	73
294.1 K, x1 = 0.5527	248
294.1 K, x1 = 0.7056	670
294.1 K, x1 = 0.8027	1065
294.1 K, x1 = 0.894	1669
294.41 K, x1 = 1	2896
295.27 K, x1 = 0.1013	4.4
295.27 K, x1 = 0.2012	13.8
295.27 K, x1 = 0.2903	33.1
295.27 K, x1 = 0.3782	70
295.27 K, x1 = 0.5527	231
295.27 K, x1 = 0.6071	333
295.27 K, x1 = 0.7056	620
295.27 K, x1 = 0.8027	970
295.27 K, x1 = 0.894	1510
296.14 K, x1 = 1	2140
296.45 K, x1 = 0.1013	4.2
296.45 K, x1 = 0.2012	13.2
296.45 K, x1 = 0.2903	31.7
296.45 K, x1 = 0.3782	66
296.45 K, x1 = 0.5527	216
296.45 K, x1 = 0.6071	308
296.45 K, x1 = 0.7056	560
296.45 K, x1 = 0.8027	880
296.45 K, x1 = 0.894	1365
296.48 K, x1 = 1	2402
297.63 K, x1 = 0.1013	3.97
297.63 K, x1 = 0.2012	12.6
297.63 K, x1 = 0.2903	30.2
297.63 K, x1 = 0.3782	63
297.63 K, x1 = 0.5527	200
297.63 K, x1 = 0.6071	283
297.63 K, x1 = 0.7056	520
297.63 K, x1 = 0.8027	800
297.63 K, x1 = 0.894	1234
298.2 K, x1 = 1	1806
298.54 K, x1 = 1	2000
298.81 K, x1 = 0.1013	3.81
298.81 K, x1 = 0.2012	12.1
298.81 K, x1 = 0.2903	29.1
298.81 K, x1 = 0.3782	61
298.81 K, x1 = 0.5527	188
298.81 K, x1 = 0.6071	263
298.81 K, x1 = 0.7056	480

CC(=O)[O-].CC[n+]1ccn(C)c1 + CCO + O
viscosity [mPa·s], 101 kPa
Conditions	298.15 K	313.15 K	328.15 K	343.15 K
x2 = 0.1044, x3 = 0.8465	3.75	2.34	1.6	1.15
x2 = 0.1179, x3 = 0.7408	9.38	5.57	3.58	2.49
x2 = 0.2002, x3 = 0.3044	31.9	18.16	11.45	7.86
x2 = 0.2242, x3 = 0.3101	28	16.28	10.41	7.22
x2 = 0.2489, x3 = 0.6021	8.23	5.06	–	–
x2 = 0.2635, x3 = 0.6879	3.8	2.41	1.64	1.19
x2 = 0.2995, x3 = 0.4047	14.14	8.83	5.91	4.2
x2 = 0.4124, x3 = 0.1068	20.57	12.7	8.57	6.09
x2 = 0.463, x3 = 0.2523	10.07	6.66	–	–
x2 = 0.4916, x3 = 0.4053	4.47	2.99	–	–
x2 = 0.5914, x3 = 0.1068	8.43	–	–	–
x2 = 0.7052, x3 = 0.1967	3.19	–	–	–

CC(=O)[O-].CC[n+]1ccn(C)c1 + CCS(=O)(=O)[O-].[NH4+]
101 kPa, x2 = 0
Conditions	electrical conductivity [S/m]	viscosity [mPa·s]
303.15 K	0.374	93.6
318.15 K	0.76	44.2

CCCO + CC[n+]1ccccc1.N#C[N-]C#N
Conditions	viscosity [mPa·s]
288.15 K, 100 kPa, x1 = 1	2.51

CCCO + CC[n+]1ccn(C)c1.COS(=O)(=O)[O-]
101 kPa, x2 = 0
Conditions	viscosity [mPa·s]
283.15 K	2.78
293.15 K	2.18
313.15 K	1.36
323.15 K	1.11

CCCC[N+](C)(CCCC)CCCC.N#C[N-]C#N + CC[n+]1ccn(C)c1.N#C[N-]C#N
viscosity [mPa·s], 101 kPa
Conditions	303.15 K	333.15 K	343.15 K	353.15 K
x2 = 0.2114	109.5	–	20.6	15.38
x2 = 0.3975	–	19.3	–	11.19
x2 = 0.6047	33	–	–	–

OCC(F)(F)F + CC[n+]1ccn(C)c1.N#C[N-]C#N
100 kPa, x2 = 0
Conditions	viscosity [mPa·s]
298.15 K	1.77
308.15 K	1.38

CCCCn1cc[n+](CCOCCOCC[n+]2ccn(CCCC)c2)c1.O=S(=O)([N-]S(=O)(=O)C(F)(F)F)C(F)(F)F.O=S(=O)([N-]S(=O)(=O)C(F)(F)F)C(F)(F)F + CC[n+]1ccn(C)c1.N#C[N-]C#N + O=S(=O)([N-]S(=O)(=O)C(F)(F)F)C(F)(F)F.[Li+]
100 kPa, x1 = 0.1442, x2 = 0.7526
Conditions	electrical conductivity [S/m]
298 K	0.677
303 K	0.795
313 K	1.05
323 K	1.39
333 K	1.71
343 K	2.08

CC[S+](CC)CCOCC[S+](CC)CC.O=S(=O)([N-]S(=O)(=O)C(F)(F)F)C(F)(F)F.O=S(=O)([N-]S(=O)(=O)C(F)(F)F)C(F)(F)F + CC[n+]1ccn(C)c1.N#C[N-]C#N + O=S(=O)([N-]S(=O)(=O)C(F)(F)F)C(F)(F)F.[Li+]
100 kPa, x1 = 0.1609, x2 = 0.7379
Conditions	electrical conductivity [S/m]
298 K	0.637
303 K	0.742
313 K	0.987
323 K	1.28
333 K	1.64
343 K	2
